Source: publication PMC7556269, “Metabolic Profiling of a CB2 Agonist, AM9338, Using LC-MS and Microcoil-NMR: Identification of a Novel Dihydroxy Adamantyl Metabolite” (Frontiers in Pharmacology, 2020)
Read-outs that look alike come from different tables or passages of the source.

Legend:
hCB2 = hCB2 (Homo sapiens, UniProt P34972); experiment: CB2 receptor binding affinity (hCB2); conditions: stated in introduction, no method or reference given
mCB2 = mCB2 (Mus musculus, UniProt P47936); experiment: CB2 receptor binding affinity (mCB2); conditions: stated in introduction, no method or reference given
[1] = Non-compartmental pharmacokinetics in mice after i.v. and oral dosing; format: in vivo; conditions: for bioavailability: oral 8 mg/kg vs I.V. 2 mg/kg
Experimental: The non-compartmental pharmacokinetic parameters following intravenous (2 mg/kg, i.v.) and oral (8 mg/kg, p.o.) dosing are presented in Table 2 .

[2] = Microsomal stability, mouse liver microsomes; format: in vitro ADME; set-up: microsomal CLint / half-life: dose or concentration left out as unconfirmed; conditions: for half-life: mouse, liver microsomes, pH 7.4, mouse liver microsomes, read-out: t1/2 (min) (Mean ± S.D.); for CLint scaled: read-out: CLint (ml/min/kg) (Mean ± S.D.)
Experimental: (§1) AM9338 (50 µM) was incubated at 37 °C with mouse, rat or human microsomes (0.5 mg/ml) in 50 mM potassium phosphate buffer, pH 7.4. Samples were taken immediately after the addition of NADPH (final concentration 1 mM) and again after 30 and 60 min of incubation; the reaction was terminated through protein precipitation with ice cold methanol followed by centrifugation at 4000 g for 10 min. The resulting supernatant was analyzed using LC-MS/MS.
(§2) Chromatographic separation of AM9338 and its metabolites was achieved using a Phenomenex Kinetex F5 column (4.6 × 150 mm, 100 Å pore size, 2.6 μm particle size) on a Thermo Accela HPLC (Thermo, San Jose, CA, USA) coupled to an API-4000 Q-Trap (AB Sciex, Concord, Ontario, Canada). Samples were eluted with mobile phases consisting of 0.1 % formic acid in acetonitrile (A) and 0.1 % formic acid in HPLC grade water (B) starting at 10% A for 2.6 min, ramping to 90%A over the next 9.4 min, and holding at 90%A for 2.8 min before returning to initial conditions for a total run time of 18.5 min; the flow rate was 0.8 ml/min and the autosampler and column oven were set to 4°C and 35°C, respectively. The mass spectrometer was operated in electrospray ionization (ESI) positive ion mode with the following conditions: ion spray voltage = 5,500 V; heater temperature = 550 °C; curtain gas = 20 psi; Q2 collision gas = set as high; source gas 1 (GS1) = 50 psi; source gas 2 (GS2) = 55 psi. High purity nitrogen was used as a source and collision gas and the compounds were detected in the multiple reaction monitoring (MRM) mode.
(§3) The susceptibility of AM9338 to CYP enzymes or hydrolytic enzymes was tested at 37°C in human, mouse and rat liver microsomes, in the presence or absence of NADPH. […] The disappearance of AM9338 in microsomes followed a first-order elimination kinetics with low elimination half-life (t1/2 < 4 min) and high intrinsic microsomal clearance of microsomal protein across all three species as shown in Table 1 .

[3] = Metabolite profile after incubation with pooled mouse liver microsomes (LC-UV/LC-MS); format: in vitro ADME; conditions: NADPH, 37°C, 60 min
Experimental: as §1
Reconstituted extracts from the microsomal incubations were injected on a Supelco Discovery column C18, 250 × 4.6 mm column (Millipore-Sigma, St Louis, MO) on Thermo Accela HPLC system (Thermo Fisher Scientific, Austin, TX). The column temperature was maintained at 35°C, the flow rate was 0.8 ml/min, the injection volume was 20 µl and UV detector was set at 300 nm, maximal absorbance wavelength for AM9338. […]
The metabolites M3 (trihydroxy), M4 (trihydroxy) and M8 (Ketone-hydroxyl) appear to be the metabolic end products of AM9338. […] The estimated relative percentage of each metabolite was calculated using the UV peak areas at the end of the incubation: M1 (49%), M2 (37%), M3 (1%), M4 (5%), M5 (4%), M7 (3%), M8 (1%), and M9 (2%). […] Human (HLM), Mouse (MLM) and rat liver microsomes (RLM) generated the very similar metabolite profile, with M1 and M2 being the major metabolic products, appearing in similar order of formation and relative quantities. […]

[4] = Microsomal stability, rat liver microsomes; format: in vitro ADME; set-up: microsomal CLint / half-life: dose or concentration left out as unconfirmed; conditions: for CLint scaled: read-out: CLint (ml/min/kg) (Mean ± S.D.); for half-life: rat, liver microsomes, pH 7.4, rat liver microsomes, read-out: t1/2 (min) (Mean ± S.D.)
Experimental: as §1, §2, §3

[5] = Microsomal stability, human liver microsomes; format: in vitro ADME; set-up: half-life / microsomal CLint: dose or concentration left out as unconfirmed; conditions: for half-life: human, liver microsomes, pH 7.4, human liver microsomes, read-out: t1/2 (min) (Mean ± S.D.); for CLint scaled: read-out: CLint (ml/min/kg) (Mean ± S.D.)
Experimental: as §1, §2, §3

CYP3A4 = CYP3A4 (Homo sapiens, UniProt P08684); experiment: CYP phenotyping using CYP specific chemical inhibitors; format: in vitro ADME; conditions: preliminary
[6] = mouse, iv, I.V. 2 mg/kg, plasma
[7] = mouse, plasma, po, 8 mg/kg, oral 8 mg/kg

Chain of mCB2 (P47936 whole entry): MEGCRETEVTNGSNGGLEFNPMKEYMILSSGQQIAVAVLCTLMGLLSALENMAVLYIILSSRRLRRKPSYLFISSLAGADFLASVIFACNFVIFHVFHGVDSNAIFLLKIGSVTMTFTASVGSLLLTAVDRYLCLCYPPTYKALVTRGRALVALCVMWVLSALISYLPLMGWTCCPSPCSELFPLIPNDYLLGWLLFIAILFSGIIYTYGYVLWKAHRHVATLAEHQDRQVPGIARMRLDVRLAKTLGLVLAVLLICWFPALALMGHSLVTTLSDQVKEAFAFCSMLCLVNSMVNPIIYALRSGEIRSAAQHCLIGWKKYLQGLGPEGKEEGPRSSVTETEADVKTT
Chain of CYP3A4 (P08684 whole entry): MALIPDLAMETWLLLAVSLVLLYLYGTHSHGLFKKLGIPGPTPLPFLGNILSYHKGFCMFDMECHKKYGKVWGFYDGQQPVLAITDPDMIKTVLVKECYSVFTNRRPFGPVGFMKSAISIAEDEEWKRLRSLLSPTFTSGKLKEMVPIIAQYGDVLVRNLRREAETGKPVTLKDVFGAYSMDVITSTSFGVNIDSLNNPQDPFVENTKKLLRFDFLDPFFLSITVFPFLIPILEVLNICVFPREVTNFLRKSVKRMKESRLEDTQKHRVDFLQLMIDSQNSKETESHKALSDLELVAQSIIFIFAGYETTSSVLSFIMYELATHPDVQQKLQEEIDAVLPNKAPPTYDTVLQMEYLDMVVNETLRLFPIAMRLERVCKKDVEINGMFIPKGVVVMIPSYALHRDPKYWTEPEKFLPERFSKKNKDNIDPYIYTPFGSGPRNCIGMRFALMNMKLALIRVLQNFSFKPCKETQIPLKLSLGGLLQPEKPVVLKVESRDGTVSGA
Chain of hCB2 (P34972 whole entry): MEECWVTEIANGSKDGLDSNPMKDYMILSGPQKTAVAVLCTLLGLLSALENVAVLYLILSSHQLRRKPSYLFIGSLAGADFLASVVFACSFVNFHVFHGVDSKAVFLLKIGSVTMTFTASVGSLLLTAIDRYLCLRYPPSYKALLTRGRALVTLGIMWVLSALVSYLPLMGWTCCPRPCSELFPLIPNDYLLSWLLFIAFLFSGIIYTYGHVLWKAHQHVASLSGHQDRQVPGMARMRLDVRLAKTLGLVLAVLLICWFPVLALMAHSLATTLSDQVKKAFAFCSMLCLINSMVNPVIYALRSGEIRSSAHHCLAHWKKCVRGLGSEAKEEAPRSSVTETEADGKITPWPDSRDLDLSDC

SMILES: O=C(NC12CC3CC(CC(C3)C1)C2)c1nn(CCCn2ccnn2)c2ccccc12 [AM9338, 1-(3-(1H-1,2,3-triazol-1-yl)propyl)-N-(adamantan-1-yl)-1H-indazole-3-carboxamide]
- Ki (hCB2): 3 nM
- Ki (mCB2): 2.3 nM
- Systemic plasma clearance as share of hepatic blood flow ([1]; I.V. 2 mg/kg): 85 % of hepatic blood flow
- t1/2 ([1]; I.V. 2 mg/kg, terminal half-life, 2 mg/kg): 16.1 min
- AUC [1, 6]: 438 ng·h/mL
- C0 [1, 6]: 2110 ng/mL
- clearance [1, 6]: 75.9 mL/min/kg
- AUC ([1]; mouse, oral 8 mg/kg, plasma): 267 ng·h/mL
- half-life ([1]; mouse, plasma, iv, 2 mg/kg, I.V. 2 mg/kg, terminal half-life): 16 min
- Vd ([1]; mouse, plasma, iv, I.V. 2 mg/kg, read-out: Vd): 1.76 L/kg
- Tmax ([1]; mouse, plasma, oral 8 mg/kg): 60 min
- bioavailability ([1]; mouse, plasma, oral, 8 mg/kg, read-out: Bioavailability): ~15%
- Cmax [1, 7]: 240 ng/mL
- half-life [1, 7]: 113 min
- CL ([1]; oral 8 mg/kg): 489 mL/min/kg
- Vd ([1]; oral 8 mg/kg): 79.9 L/kg
- bioavailability [1]: 15.5%
- Cmax (Oral) ([1]; oral 8 mg/kg, plasma, 8 mg/kg): 239 ± 230 ng/mL
- Stability in absence of NADPH ([2]; mouse microsomes, 37°C, no NADPH, tested up to 2 h): stable
- microsomal CLint ([2]; pH 7.4, mouse liver microsomes, presence of NADPH, read-out: CLint (µl/min/mg) (Mean ± S.D.)): 2950 ± 282 µL/min/mg
- Extent of metabolism of parent [3]: almost completely metabolized
- microsomal CLint ([4]; pH 7.4, rat liver microsomes, presence of NADPH, read-out: CLint (µl/min/mg) (Mean ± S.D.)): 830 ± 136 µL/min/mg
- Stability in absence of NADPH ([4]; rat microsomes, 37°C, no NADPH, tested up to 2 h): stable
- t1/2 (min) (Mean ± S.D.) ([5]; human liver microsomes, 37°C, presence of NADPH): 3.3 ± 0.6 min
- Stability in absence of NADPH ([5]; human microsomes, 37°C, no NADPH, tested up to 2 h): stable
- half-life ([5]; 37°C, presence of NADPH): < 4 min
- microsomal CLint ([5]; pH 7.4, human liver microsomes, presence of NADPH, read-out: CLint (µl/min/mg) (Mean ± S.D.)): 420 ± 93 µL/min/mg
- Major CYP isoform responsible for the adamantyl oxidations (CYP3A4): CYP3A4

SMILES: O=C(NC12CC3CC(C1)C(O)C(C3)C2)c1nn(CCCn2ccnn2)c2ccccc12 (stereo not shown) [M1]
- half-life ([2]; 37°C, presence of NADPH): 2.02 ± 0.11 min
- CLint scaled ([2]; pH 7.4, mouse liver microsomes): 2730 ± 223 mL/min/kg
- CLint scaled ([4]; pH 7.4, rat liver microsomes): 565 ± 4.4 mL/min/kg
- half-life ([4]; 37°C, presence of NADPH): 4.41 ± 0.31 min
- half-life ([5]; 37°C, presence of NADPH): 13.1 ± 2.48 min
- CLint scaled ([5]; pH 7.4, human liver microsomes): 121 ± 20 mL/min/kg

SMILES: O=C(NC12CC3CC(C1)C(O)C(C2)C3O)c1nn(CCCn2ccnn2)c2ccccc12 (stereo not shown) [M2]
- half-life ([2]; 37°C, presence of NADPH): 10.5 ± 0.64 min
- CLint scaled ([2]; pH 7.4, mouse liver microsomes): 520 ± 54 mL/min/kg
- CLint scaled ([4]; pH 7.4, rat liver microsomes): 93 ± 10 mL/min/kg
- half-life ([4]; 37°C, presence of NADPH): 26.8 ± 6.6 min
- half-life ([5]; 37°C, presence of NADPH): 30.8 ± 6.7 min
- CLint scaled ([5]; pH 7.4, human liver microsomes): 54 ± 4 mL/min/kg
